Our source for the EC50 values is patent US9133115B2 (ACHILLION PHARMACEUTICALS, INC., priority 2008, dated 2015).

Structures are written as SMILES. A value given as a limit tells only on which side of the number the result lay.

This assay concerns HCV replicon. Briefly: HCV replicon replication assay (NPT ELISA) in Huh-7 replicon-containing cells. Type of assay: cell-based. As to conditions: Hepatitis C virus, 72 h; HCV replicon in Huh-7 cells, three days incubation; read-out: EC50. In short, it runs like this: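 Replication was scored by capture ELISA of neomycin phosphotransferase, whose level tracks replicon replication, after graded compound treatment. The cells were Huh-7 harbouring an HCV-IRES/neo/EMCV-IRES/NS3–NS5B/3′-NTR replicon, plated at 6000-7500 cells/well and dosed 24 h later at 60-70% confluence; interferon alpha was the positive control.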
Background: Replicon systems follow genome replication, usually without infectious particles.
For `C=C[C@@H]1C[C@]1(NC(=O)[C@@H]1C[C@@H](Oc2cc(-c3ccccn3)nc3cc(OC)ccc23)CN1C(=O)[C@@H](CC(=O)N1CC2CCC1C2)C(C)(C)C)C(=O)NS(=O)(=O)C1CC1` (stereo partly drawn) [Compound 220, (2S,4R)-1-((2S)-2-(2-(2-azabi-cyclo[2.2.1]heptan-2-yl)-2-oxoethyl)-3,3-dimethylbutanoyl)-N-((1R)-1-(cyclo-propylsulfonyl-carbamoyl)-2-vinylcyclopropyl)-4-(7-methoxy-2-(pyridin-2-yl)quinolin-4-yloxy)pyrrolidine-2-carboxamide], the EC50 (in general, the concentration at which the effect is half-maximal) is < 1000 nM.

As to `C=C[C@@H]1C[C@]1(NC(=O)[C@@H]1C[C@@H](Oc2cc(-c3ccccn3)nc3cc(OC)ccc23)CN1C(=O)[C@@H](CC(=O)N1CC2CC3CC(C2)CC1C3)C(C)(C)C)C(=O)NS(=O)(=O)C1CC1` [Compound 221], the EC50 was > 10000 nM. The result for `C=C[C@@H]1C[C@]1(NC(=O)[C@@H]1C[C@@H](Oc2cc(-c3ccccc3)nc3cc(OC)ccc23)CN1C(=O)[C@@H](CC(=O)N1CCC1)C(C)(C)C)C(=O)NS(=O)(=O)C1CC1` [Compound 222, (2S,4R)-1-((S)-4-(azetidin-1-yl)-2-tert-butyl-4-oxobutanoyl)-N-((1R)-1-(cyclopropyl-sulfonylcarbamoyl)-2-vinylcyclopropyl)-4-(7-methoxy-2-phenylquinolin-4-yloxy)pyrrolidine-2-carboxamide] reads < 1000 nM; that for `C=C[C@@H]1C[C@]1(NC(=O)[C@@H]1C[C@@H](Oc2cc(-c3ccccc3)nc3cc(OC)ccc23)CN1C(=O)[C@@H](CC(=O)N1CC(F)(F)C1)C(C)(C)C)C(=O)NS(=O)(=O)C1CC1` [Compound 223, (2S,4R)-1-((S)-2-tert-butyl-4-(3,3-difluoroazetidin-1-yl)-4-oxobutanoyl)-N-((1R)-1-(cyclopropyl-sulfonylcarbamoyl)-2-vinylcyclopropyl)-4-(7-methoxy-2-phenylquinolin-4-yloxy)pyrrolidine-2-carboxamide], < 1000 nM; that for `C=C[C@@H]1C[C@]1(NC(=O)[C@@H]1C[C@@H](Oc2cc(-c3ccccc3)nc3cc(OC)ccc23)CN1C(=O)[C@@H](CC(=O)N1CC(Cl)C1)C(C)(C)C)C(=O)NS(=O)(=O)C1CC1` [Compound 224, (2S,4R)-1-((S)-2-tert-butyl-4-(3-chloroazetidin-1-yl)-4-oxobutanoyl)-N-((1R)-1-(cyclopropyl-sulfonylcarbamoyl)-2-vinylcyclopropyl)-4-(7-methoxy-2-phenylquinolin-4-yloxy)pyrrolidine-2-carboxamide], < 1000 nM. To `C=C[C@@H]1C[C@]1(NC(=O)[C@@H]1C[C@@H](Oc2cc(-c3ccccc3)nc3ccccc23)CN1C(=O)[C@@H](CC(=O)N1CCCCC1)C(C)(C)C)C(=O)NS(=O)(=O)C1CC1` [Compound 225, (2S,4R)-1-((S)-2-tert-butyl-4-oxo-4-(piperidin-1-yl)butanoyl)-N-((1R)-1-(cyclopropyl-sulfonylcarbamoyl)-2-vinylcyclopropyl)-4-(2-phenylquinolin-4-yloxy)pyrrolidine-2-carboxamide] belongs < 1000 nM. `C=C[C@@H]1C[C@]1(NC(=O)[C@@H]1C[C@@H](Oc2cc(-c3ccccc3)nc3ccc(C)cc23)CN1C(=O)[C@@H](CC(=O)N1CCCCC1)C(C)(C)C)C(=O)NS(=O)(=O)C1CC1` [Compound 226, (2S,4R)-1-((S)-2-tert-butyl-4-oxo-4-(piperidin-1-yl)butanoyl)-N-((1R)-1-(cyclopropyl-sulfonylcarbamoyl)-2-vinylcyclopropyl)-4-(6-methyl-2-phenylquinolin-4-yloxy)pyrrolidine-2-carboxamide]: the EC50 was < 1000 nM. For `C=C[C@@H]1C[C@]1(NC(=O)[C@@H]1C[C@@H](Oc2cc(-c3ccccc3)nc3cc(OC)ccc23)CN1C(=O)[C@@H](CC(=O)N1CCC1c1ccccc1)C(C)(C)C)C(=O)NS(=O)(=O)C1CC1` (stereo partly drawn) [Compound 227, (2S,4R)-1-((2S)-2-tert-butyl-4-oxo-4-(2-phenylazetidin-1-yl)butanoyl)-N-((1R)-1-(cyclopropyl-sulfonylcarbamoyl)-2-vinylcyclopropyl)-4-(7-methoxy-2-phenylquinolin-4-yloxy)pyrrolidine-2-carboxamide], the concentration giving a half-maximal response (EC50) is < 1000 nM. `C=C[C@@H]1C[C@]1(NC(=O)[C@@H]1C[C@@H](Oc2cc(-c3ccccc3)nc3cc(OC)ccc23)CN1C(=O)[C@@H](CC(=O)N1CCC1c1cccc(OC)c1)C(C)(C)C)C(=O)NS(=O)(=O)C1CC1` (stereo partly drawn) [Compound 228, (2S,4R)-1-((2S)-2-tert-butyl-4-(2-(3-methoxyphenyl)aze-tidin-1-yl)-4-oxobutanoyl)-N-((1R)-1-(cyclopropyl-sulfonylcarbamoyl)-2-vinylcyclopropyl)-4-(7-methoxy-2-phenylquinolin-4-yloxy)pyrrolidine-2-carboxamide]: the EC50 was < 1000 nM. As for `C=C[C@@H]1C[C@]1(NC(=O)[C@@H]1C[C@@H](Oc2cc(-c3ccccc3)nc3ccc(OC)cc23)CN1C(=O)[C@@H](CC(=O)N1CCCCC1)C(C)(C)C)C(=O)NS(=O)(=O)C1CC1` [Compound 229, (2S,4R)-1-((S)-2-tert-butyl-4-oxo-4-(piperidin-1-yl)butanoyl)-N-((1R)-1-(cyclopropyl-sulfonylcarbamoyl)-2-vinylcyclopropyl)-4-(6-methoxy-2-phenylquinolin-4-yloxy)pyrrolidine-2-carboxamide], the EC50 was < 1000 nM. To `C=C[C@@H]1C[C@]1(NC(=O)[C@@H]1C[C@@H](Oc2cc(-c3nc(C(C)C)cs3)nc3cc(OC)ccc23)CN1C(=O)[C@@H](CC(=O)N1CCCCC1)C(C)(C)C)C(=O)NS(=O)(=O)C1CC1` [Compound 230, (2S,4R)-1-((S)-2-tert-butyl-4-oxo-4-(piperidin-1-yl)butanoyl)-N-((1R)-1-(cyclopropyl-sulfonylcarbamoyl)-2-vinylcyclopropyl)-4-(2-(4-isopropylthiazol-2-yl)-7-methoxyquinolin-4-yloxy)pyrrolidine-2-carboxamide] belongs < 1000 nM; to `C=C[C@@H]1C[C@]1(NC(=O)[C@@H]1C[C@@H](Oc2cc(-c3ccccc3)nc3c(OC)cccc23)CN1C(=O)[C@@H](CC(=O)N1CCCCC1)C(C)(C)C)C(=O)NS(=O)(=O)C1CC1` [Compound 231, (2S,4R)-1-((S)-2-tert-butyl-4-oxo-4-(piperidin-1-yl)butanoyl)-N-((2S)-1-(cyclopropyl-sulfonylcarbamoyl)-2-vinylcyclopropyl)-4-(8-methoxy-2-phenylquinolin-4-yloxy)pyrrolidine-2-carboxamide], < 1000 nM. The result for `C=C[C@@H]1C[C@]1(NC(=O)[C@@H]1C[C@@H](Oc2cc(-c3ccccc3)nc3cc(OC)ccc23)CN1C(=O)[C@@H](CC(=O)N1CCCCC1c1cc(-c2ccccc2)[nH]n1)C(C)(C)C)C(=O)NS(=O)(=O)C1CC1` (stereo partly drawn) [Compound 232, (2S,4R)-1-((2S)-2-tert-butyl-4-oxo-4-(2-(5-phenyl-1H-pyrazol-3-yl)piperidin-1-yl)butanoyl)-N-((2S)-1-(cyclopropyl-sulfonylcarbamoyl)-2-vinylcyclopropyl)-4-(7-methoxy-2-phenylquinolin-4-yloxy)pyrrolidine-2-carboxamide] reads < 1000 nM; that for `C=C[C@@H]1C[C@]1(NC(=O)[C@@H]1C[C@@H](Oc2cc(-c3ccccc3)cc3cc(OC)ccc23)CN1C(=O)[C@@H](CC(=O)N1CCCCC1)C(C)(C)C)C(=O)NS(=O)(=O)C1CC1` [Compound 233, (2S,4R)-1-((S)-2-tert-butyl-4-oxo-4-(piperidin-1-yl)butanoyl)-N-((1R)-1-(cyclopropyl-sulfonylcarbamoyl)-2-vinylcyclopropyl)-4-(6-methoxy-3-phenylnaphthalen-1-yloxy)pyrrolidine-2-carboxamide], < 1000 nM. For the molecule `C=C[C@@H]1C[C@]1(NC(=O)[C@@H]1C[C@@H](Oc2cc(-c3ccccc3)nc3c4c(ccc23)CCC4)CN1C(=O)[C@@H](CC(=O)N1CCCCC1)C(C)(C)C)C(=O)NS(=O)(=O)C1CC1` [Compound 235, (2S,4R)-l-((S)-2-tert-butyl-4-oxo-4-(piperidin-l-yl)butanoyl)-N-((2S)-l-(cyclopropyl-sulfonylcarbamoyl)-2-vinylcyclopropyl)-4-(2-phenyl-8,9-dihydro-7H-cyclo-penta[h]quinolin-4-yloxy)pyrrolidine-2-carboxamide], the EC50 was < 1000 nM. Consider `C=C[C@@H]1C[C@]1(NC(=O)[C@@H]1C[C@@H](Oc2cc(-c3ccccn3)nc3c4c(ccc23)CCC4)CN1C(=O)[C@@H](CC(=O)N1CCCC(F)(F)C1)C(C)(C)C)C(=O)NS(=O)(=O)C1CC1` [Compound 236, (2S,4R)-1-((S)-2-tert-butyl-4-(3,3-difluoropiperidin-1-yl)-4-oxobutanoyl)-N-((2S)-1-(cyclopropyl-sulfonylcarbamoyl)-2-vinylcyclopropyl)-4-(2-(pyridin-2-yl)-8,9-dihydro-7H-cyclopenta[h]quino-lin-4-yloxy)pyrrolidine-2-carboxamide], for which the EC50 is < 1000 nM. Turning to `C=C[C@@H]1C[C@]1(NC(=O)[C@@H]1C[C@@H](Oc2cc(-c3ccccn3)nc3c4c(ccc23)CCC4)CN1C(=O)[C@@H](CC(=O)N1CCC(C(F)(F)F)CC1)C(C)(C)C)C(=O)NS(=O)(=O)C1CC1` [Compound 237, (2S,4R)-1-((S)-2-tert-butyl-4-oxo-4-(4-(trifluoro-methyl)piperidin-1-yl)butanoyl)-N-((2S)-1-(cyclopropyl-sulfonylcarbamoyl)-2-vinylcyclopropyl)-4-(2-(pyridin-2-yl)-8,9-dihydro-7H-cyclopenta[h]quino-lin-4-yloxy)pyrrolidine-2-carboxamide], the EC50 was < 1000 nM.
